3 compounds from patent US20250129012A1, “ANTI-INFLAMMATORY AND ANALGESIC COMPOUNDS AND USE THEREOF” (JIANGSU ATOM BIOSCIENCE AND PHARMACEUTICAL CO., LTD., priority 2021, published 2025) can be followed below.

The structures appear in SMILES notation. Marks after values point to notes of the source that are not given here.

For series [1], the system named is gouty arthritis in rats (urate crystals, left ankle joint). Briefly: Pharmacodynamics experiment A on gouty arthritis in rats: paw volume. The format is in vivo, SD rats. As to conditions: for Paw volume versus model group, in words: time points after modeling; for Paw volume: Mean ± SEM. As to the method: (§1) Compounds 2, 17, 26 and 27 were prepared by grinding with 0.5% CMC-Na into a suspension of the corresponding concentration (0.06 mg/mL) for gavage before administration, and the volume of administration was 10 mL/kg. […] Before use, 0.5% CMC-Na was used for grinding and prepared into a suspension of the corresponding concentration (0.06 mg/mL) for gavage, and the volume of drug administered was 10 mL/kg.
(§2) Each group of subjects was prepared into a suspension of the corresponding concentration, and the administration volume was 10 mL/kg.
(§3) The crystalline arthritis model was prepared by intra-articular injection of urate crystals (40 mg/mL, in the left ankle joint of each rat). Different doses of the test drug were given separately by gavage administration. The day of administration was defined as day 1 of the experiment, and the drug was administered once a day for 10 consecutive days (pre-administration of the drug for 7 days prior to modeling, modeling on day 8, and continuation of the drug for 3 days). The experiment ended on day 10.
Paw volume was measured before administration, before urate injection, and 2, 4, 8, 10, 24, and 48 h after injection.
(§4) The data obtained from the experiment were statistically analyzed using IBM SPSS Statistics 22.0. All measurements were expressed as Mean±S.E.M s. The data were analyzed using SPSS 22.0 statistical software and variance chi-square test was performed on the parameters.

Series [2] shares this test system. The series can be described thus: Pharmacodynamics experiment A on gouty arthritis in rats: gait score. Particulars: 0.6 mg/kg gavage; for Gait versus model group, in words: time points after modeling, P<0.05 or P<0.01; for Gait Score: Mean ± SEM. Set-up: Gait Score: scale not given here. In kind it is in vivo, SD rats. As to the method: as §1, §2, §3
The degree of lameness of the modeled joints was observed and scored at the same time point.
as §4

Series [3] shares this test system. Briefly: Pharmacodynamics experiment A on gouty arthritis in rats: pain score. In kind it is in vivo, SD rats. Set-up: Pain score: scale not given here. As to conditions: 0.6 mg/kg gavage; for Pain versus model group, in words: time points after modeling, P<0.05 or P<0.01; for Pain score: Mean ± SEM. The procedure: as §1, §2, §3
The pain level was scored using the flexion and extension joint pain test scoring method at the same time point.
as §4

A short description of series [4]: In vivo pharmacokinetics in SD rats. As to conditions: Sprague-Dawley, rat, in vivo. As to the method:
Compound stock solution preparation: an appropriate amount of solid powder of the compounds were weighed separately, a certain amount of DMSO was added and 20 mg/mL of stock solution was obtained under vortex ultrasound.
Preparation of test compound for gavage: an appropriate amount of compound stock solution was taken by pipette, a certain amount of Solutol HS15 solution was added, the mixture was vortexed for 1 minute, then a certain amount of saline was added, and 1 mg/mL of solution was obtained after mixing well.
Preparation of test compounds for intravenous injection: an appropriate amount of compound stock solution was taken by pipette separately, a certain amount of Solutol HS15 solution was added, the mixture was vortexed for 1 minute, then a certain amount of physiological saline was added and a solution of 0.5 mg/mL was obtained after mixing well.
The animals were fasted overnight before administration by gavage, and food was given 4 hours after administration, during which they were free to drink. Two groups were set for each test compound, intravenous injection group and oral administration group, and the dose and mode of administration were shown in Table 12 below.
The blood samples were centrifuged at 4° C. for 5 min at 2,000 g to separate the plasma. The plasma samples were analyzed by LC/MS/MS to detect the concentration of each test compound in the plasma samples.
The parameters related to the […] were obtained by calculations with WinNonlin® Professional software.

Setting [5] is: 2 h after modeling, 0.6 mg/kg gavage.
[6] abbreviates: 4 h after modeling, 0.6 mg/kg gavage.
Setting [7] is: 8 h after modeling, 0.6 mg/kg gavage.
Setting [8] is: 10 h after modeling, 0.6 mg/kg gavage.
Setting [9] is: 24 h after modeling, 0.6 mg/kg gavage.
The mark [10] stands for this setting: 48 h after modeling, 0.6 mg/kg gavage.
[11] abbreviates: before modeling, 0.6 mg/kg gavage once a day.

Regarding `COc1cc2c(c(OC)c1OC)-c1ccc(NS(C)(=O)=O)c(=O)cc1[C@@H](NC(C)=O)CC2` [Compound 2, (S)—N-(1,2,3-trimethoxy-10-methanesulfonylamino-9-oxo-5,6,7,9-tetrahydrobenzo[a]heptalen-7-yl)acetamide], the “Paw volume versus model group, in words” value in series [1] (0.6 mg/kg gavage) is “significantly reduce the paw volume at 2 h, 4 h, and 48 h”. The Paw volume in series [1] (setting [5]) is 2.51 ± 0.06* cm^3; in series [1] (setting [6]), 2.54 ± 0.04* cm^3; in series [1] (setting [7]), 2.63 ± 0.06 cm^3; in series [1] (setting [8]), 2.59 ± 0.07 cm^3; in series [1] (setting [9]), 2.52 ± 0.08 cm^3; in series [1] (setting [10]) it was 2.35 ± 0.06* cm^3. In series [1] (setting [11]), this compound gave a Paw volume of 2.18 ± 0.02 cm^3. For the same compound, the “Gait versus model group, in words” value in series [2] is “significantly improved the gait at 2 h, 8 h, 24 h, and 48 h”. In addition, the Gait Score in series [2] (2 h after modeling) is 1.10 ± 0.10; in series [2] (4 h after modeling), 1.10 ± 0.10; in series [2] (8 h after modeling), 1.10 ± 0.10; in series [2] (10 h after modeling), 1.20 ± 0.13; in series [2] (24 h after modeling), 1.00 ± 0.00; in series [2] (48 h after modeling), 1.00 ± 0.00. Also, in series [2] (before modeling), the Gait Score is recorded as 0.00 ± 0.00. In series [3], the “Pain versus model group, in words” value is “significantly improved pain at 2 h, 4 h, 8 h, 10 h, 24 h, and 48 h”. In addition, the Pain score in series [3] (2 h after modeling) is recorded as 2.70 ± 0.68; in series [3] (4 h after modeling) it was 1.30 ± 0.52; in series [3] (8 h after modeling) it was 3.30 ± 0.54; in series [3] (10 h after modeling) it was 2.20 ± 0.68; in series [3] (24 h after modeling) it was 1.30 ± 0.62; in series [3] (48 h after modeling) it was 1.00 ± 0.67. In series [3] (before modeling), the Pain score was 0.00 ± 0.00.

The AUC(0-inf) is the area under the concentration-time curve extrapolated to infinity. The term MRT inf denotes the average time that molecules of a dose stay in the body. A word on the Vd: it is the apparent volume that relates the amount in the body to the concentration in plasma or blood. The clearance is a measure of how efficiently the substance is removed, as volume per time. A word on the half-life: it is the time needed for the level to fall by half in the phase considered. As a reminder, the Cmax is the maximum level reached in the sampled fluid or tissue. What is called Tmax is the time from dosing to the highest level. For the compound `[2H]C([2H])([2H])Oc1c(OC)c(OC)cc2c1-c1ccc(C(=O)NC)c(=O)cc1[C@@H](NC(C)=O)CC2` [Compound 132, (S)-7-acetamido-2,3-dimethoxy-1-trideuteromethoxy-N-methyl-9-oxo-5,6,7,9-tetrahydrobenzo[a]heptalen-10-carboxamide], the F in series [4] (10 mg/kg) is recorded as 47.5%. Also, in series [4] (iv, 1 mg/kg), the AUC(0-inf) turned out to be 702 ng·h/mL, the mean residence time (MRT inf) was 1.06 h, the Vd was 1.39 L/kg and the clearance is 24.3 mL/min/kg. Further, the half-life in series [4] (iv, 1 mg/kg) was 127 min. For the same compound, in series [4] (po, 10 mg/kg), the total exposure AUC(0-inf) was 3340 ng·h/mL, the peak level (Cmax) was 1780 ng/mL, the MRT inf was 2.1 h and the Tmax worked out at 15 min. In series [4] (po, 10 mg/kg), this compound showed a half-life of 83.4 min.

Turning to `COc1cc2c(c(OC)c1OC)-c1ccc(=O)c(OC3CCOC3)cc1[C@@H](NC(C)=O)CC2` (stereo partly drawn) [Compound 27, (S)—N-(1,2,3-trimethoxy-10-oxo-9-[(tetrahydrofuran-3-yl)oxy]-5,6,7,10-tetrahydrobenzo[a]heptalen-7-yl)acetamide], the “Paw volume versus model group, in words” value in series [1] (0.6 mg/kg gavage) was “significantly reduce the paw volume at 2 h, 4 h, 8 h, 10 h, and 48 h”. For the same compound, the Paw volume in series [1] (setting [5]) was 2.51 ± 0.04** cm^3; in series [1] (setting [6]), 2.54 ± 0.03* cm^3; in series [1] (setting [7]), 2.57 ± 0.04* cm^3; in series [1] (setting [8]) it was 2.55 ± 0.04* cm^3; in series [1] (setting [9]), 2.50 ± 0.07 cm^3; in series [1] (setting [10]), 2.29 ± 0.04** cm^3. Further, the Paw volume in series [1] (setting [11]) was 2.16 ± 0.04 cm^3. Further, in series [2], the “Gait versus model group, in words” value is “significantly improved the gait at 2 h, 24 h, and 48 h”. The Gait Score is 1.00 ± 0.00 in series [2] (2 h after modeling); 1.10 ± 0.10 in series [2] (4 h after modeling); 1.40 ± 0.22 in series [2] (8 h after modeling); 1.20 ± 0.20 in series [2] (10 h after modeling); 1.00 ± 0.00 in series [2] (24 h after modeling); 1.00 ± 0.00 in series [2] (48 h after modeling). In addition, in series [2] (before modeling), the Gait Score is given as 0.00 ± 0.00. In addition, the “Pain versus model group, in words” value in series [3] was “significantly improved gait at 2 h, 8 h, 10 h, 24 h, and 48 h”. Moreover, the Pain score in series [3] (2 h after modeling) was 2.00 ± 0.67; in series [3] (4 h after modeling) it was 2.80 ± 0.68; in series [3] (8 h after modeling), 3.30 ± 0.47; in series [3] (10 h after modeling), 2.50 ± 0.65; in series [3] (24 h after modeling) it was 1.50 ± 0.60; in series [3] (48 h after modeling) it was 1.00 ± 0.60. This compound also came in with a Pain score in series [3] (before modeling) of 0.00 ± 0.00.
